{"source": "patent US4886663A", "about": "(priority 1983, dated 1989)", "key": {"rat ligated ileal loops": {"tested_on": "rat ligated ileal loops", "conditions": "in vivo"}, "[1]": {"tested_on": "hyperimmune antisera to biologic ST", "format": "binding, goat and rabbit"}, "[2]": {"tested_on": "hyperimmune antisera to synthetic ST", "format": "binding, goat and rabbit"}, "[3]": {"tested_on": "hyperimmune rabbit antiserum to biologic ST", "conditions": "in vivo"}, "[4]": {"tested_on": "goat hyperimmune antiserum to synthetic ST", "conditions": "in vivo"}, "suckling mouse": {"tested_on": "suckling mouse", "conditions": "in vivo"}, "[5]": {"conditions": "in vivo, po"}, "[6]": {"tested_on": "rabbit ligated ileal loops", "conditions": "in vivo"}}, "note": "Where no end group is shown, it is not given here."}
{"sequence": "NTFYCCELCCYPACAGCN (cysteine pairing not given here) [synthetic ST]", "values": [{"measurement": "ED50 in rat ligated ileal loops", "setting": "rat ligated ileal loops", "value": 2.0, "unit": "nanograms"}, {"measurement": "secretory responses in ligated ileal loops compared with biologic ST", "setting": "rat ligated ileal loops", "value": "Substantial identity of secretory responses"}, {"measurement": "Anti-Biol.-ST: percent recognition of assayed ST by antiserum raised to biologic ST", "setting": "[1]", "value": 263}, {"measurement": "antigenicity relative to biologic ST Ib, later preparations", "setting": "[1]", "value": "about 3 fold"}, {"measurement": "Anti-Syn. ST: percent recognition of assayed ST by antiserum raised to synthetic ST", "setting": "[2]", "value": 100}, {"measurement": "antigenicity compared with biologic ST", "setting": "[2]", "value": "identical"}, {"measurement": "mouse units of toxin neutralized by one milliliter of hyperimmune rabbit antiserum to biologic ST", "setting": "[3]", "value": 160, "unit": "MU"}, {"measurement": "mouse units of toxin neutralized by one milliliter of goat hyperimmune antiserum to synthetic ST", "setting": "[4]", "value": 220, "unit": "MU"}, {"measurement": "Nanograms required to provide a gut: whole body ratio of 0.083", "setting": "suckling mouse", "value": 5.3, "unit": "ng"}, {"measurement": "Suckling Mouse (Percent)", "setting": "suckling mouse", "value": 120}, {"measurement": "biological activity / potency in suckling mouse assay compared with biologic (E. coli) ST", "setting": "suckling mouse", "value": "substantially the same as biologic ST"}, {"measurement": "mouse units of ST activity per microgram", "setting": "suckling mouse", "value": 175, "unit": "mouse units per microgram"}, {"measurement": "reduction of ST toxicity by the cross-linking reaction to B subunit", "setting": "suckling mouse", "value": 727, "unit": "fold"}, {"measurement": "secretory activity in the suckling mouse assay after dithiothreitol", "setting": "suckling mouse", "value": "abolished its secretory activity"}, {"measurement": "value for one mouse unit", "setting": "suckling mouse", "value": 5.7, "unit": "nanograms"}, {"measurement": "diarrhea after p.o. administration", "setting": "[5]", "value": "did not cause diarrhea"}, {"measurement": "fluid secretion in rabbit ligated ileal loops", "setting": "[6]", "value": "did not cause any fluid secretion"}, {"measurement": "fluid:length ratio in rabbit ligated ileal loops", "setting": "[6]", "value": "1.1±0.3"}]}
